In ChEMBL document CHEMBL1133841 (Bioorg Med Chem Lett, 2001):

Biological target: T1, Serine-threonine protein phosphatase 2A regulatory subunit (Gallus gallus, UniProt Q8AWE3)
T1 sequence (Q8AWE3 whole entry): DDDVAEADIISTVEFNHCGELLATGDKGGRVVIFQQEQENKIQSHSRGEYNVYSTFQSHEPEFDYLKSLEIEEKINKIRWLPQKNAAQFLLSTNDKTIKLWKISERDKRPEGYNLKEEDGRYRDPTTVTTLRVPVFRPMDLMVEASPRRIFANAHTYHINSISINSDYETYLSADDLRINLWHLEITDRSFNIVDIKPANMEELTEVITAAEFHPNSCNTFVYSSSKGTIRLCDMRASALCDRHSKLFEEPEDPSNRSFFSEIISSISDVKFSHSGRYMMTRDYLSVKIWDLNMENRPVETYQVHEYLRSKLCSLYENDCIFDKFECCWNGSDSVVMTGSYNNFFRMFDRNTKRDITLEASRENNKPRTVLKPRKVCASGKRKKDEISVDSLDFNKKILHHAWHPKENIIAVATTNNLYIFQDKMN
Assay: Inhibitory concentration against protein phosphatase 2A (PP2A) was determined

| Structure (SMILES) | IC50 [µM] |
| --- | --- |
| O=C(O)[C@H](Cc1c[nH]c2ccccc12)N1C(=O)[C@@H]2[C@H](C1=O)[C@H]1CC[C@@H]2O1 | 105 |
| O=C(O)CC[C@H](C(=O)O)N1C(=O)[C@@H]2[C@H](C1=O)[C@H]1CC[C@@H]2O1 | 32 |
| C[C@@H](C(=O)O)N1C(=O)[C@@H]2[C@H](C1=O)[C@H]1CC[C@@H]2O1 | > 1000 |
| CSC[C@@H](C(=O)O)N1C(=O)[C@@H]2[C@H](C1=O)[C@H]1CC[C@@H]2O1 | > 1000 |
| CC(C)C[C@@H](C(=O)O)N1C(=O)[C@@H]2[C@H](C1=O)[C@H]1CC[C@@H]2O1 | > 1000 |
| O=C(O)[C@H](Cc1c[nH]cn1)N1C(=O)[C@@H]2[C@H](C1=O)[C@H]1CC[C@@H]2O1 | 1.35 |
| O=C(O)[C@@H](Cc1ccccc1)N1C(=O)[C@@H]2[C@H](C1=O)[C@H]1CC[C@@H]2O1 | > 1000 |
| O=C(O)[C@@H](Cc1cnc[nH]1)N1C(=O)[C@@H]2[C@H](C1=O)[C@H]1CC[C@@H]2O1 | 0.81 |
| CC(C)C[C@H](C(=O)O)N1C(=O)[C@@H]2[C@H](C1=O)[C@H]1CC[C@@H]2O1 | > 1000 |
| O=C(O)[C@@H](Cc1c[nH]c2ccccc12)N1C(=O)[C@@H]2[C@H](C1=O)[C@H]1CC[C@@H]2O1 | 157 |
| O=C(O)[C@H](Cc1ccccc1)N1C(=O)[C@@H]2[C@H](C1=O)[C@H]1CC[C@@H]2O1 | > 1000 |
| C[C@H](C(=O)O)N1C(=O)[C@@H]2[C@H](C1=O)[C@H]1CC[C@@H]2O1 | 150 |

Biological target: Serine/threonine-protein phosphatase PP1 catalytic subunit
Assay: Inhibitory concentration against protein phosphatase 1 was determined

| Structure (SMILES) | IC50 [µM] |
| --- | --- |
| CCOC(=O)C1C(C(=O)O)[C@@H]2CC[C@H]1O2 (stereo not given in full) | 2.96 |

Biological target: T2, Serine-threonine protein phosphatase 2A regulatory subunit (Gallus gallus) (UniProt Q8AWE3)
T2 sequence (whole entry): T1 sequence (Q8AWE3 whole entry)
Assay: Selectivity expressed as the ratio of Protein phosphatase 2A/Protein phosphatase 1 was determined

| Structure (SMILES) | Selectivity |
| --- | --- |
| CCOC(=O)C1C(C(=O)O)[C@@H]2CC[C@H]1O2 (stereo not given in full) | 6.5 |

System: not listed separately
Assay: Selectivity expressed as the ratio of PP2A/PP1 was determined

| Structure (SMILES) | Selectivity |
| --- | --- |
| O=C(O)CC[C@H](C(=O)O)N1C(=O)[C@@H]2[C@H](C1=O)[C@H]1CC[C@@H]2O1 | 3 |
